Data taken from US20240199587A1, “HETEROCYCLIC COMPOUNDS” (Hoffmann-La Roche Inc., priority 2021, published 2024).

Biological target: T1, MAGL (Homo sapiens, UniProt Q99685)
T1 sequence (Q99685 1-303): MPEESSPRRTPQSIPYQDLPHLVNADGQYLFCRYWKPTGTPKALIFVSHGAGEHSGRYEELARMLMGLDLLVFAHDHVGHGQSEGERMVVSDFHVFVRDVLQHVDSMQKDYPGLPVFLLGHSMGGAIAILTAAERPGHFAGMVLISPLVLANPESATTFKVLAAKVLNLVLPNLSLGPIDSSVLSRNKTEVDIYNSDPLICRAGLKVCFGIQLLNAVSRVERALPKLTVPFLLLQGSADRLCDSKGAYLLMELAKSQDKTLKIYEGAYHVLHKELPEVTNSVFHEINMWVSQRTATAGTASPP
Assay: 2-AG assay (MAGL inhibitory activity, hydrolysis of 2-arachidonoylglycerol to arachidonic acid followed by mass spectrometry)
Type: biochemical
Conditions: 8 μM 2-arachidonoylglycerol, 15 min pre-incubation, 30 min incubation at RT, RapidFire MS readout
In short: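 Human MAGL ([…] final) pre-incubated 15 min at RT with compound in 50 mM TRIS, 1 mM EDTA, 0.01% Tween-20, 2.5% DMSO; 8 μM 2-AG then added for 30 min at RT. Acetonitrile quench with d8-arachidonic acid; arachidonic acid measured by RapidFire SPE–MS/MS, activity from arachidonic acid/d8 ratio.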

SMILES | IC50 [nM]
O=C(N1CC2(CC(n3cnc(C4(O)CC4)n3)C2)C1)N1CC2(CC[C@@H](Cc3cccc(S(=O)(=O)C(F)(F)F)c3)C2)C1 [Example 360, [6-[3-(1-hydroxycyclopropyl)-1,2,4-triazol-1-yl]-2-azaspiro[3.3]heptan-2-yl]-[(6S)-6-[[3-(trifluoromethylsulfonyl)phenyl]methyl]-2-azaspiro[3.4]octan-2-yl]methanone] | 0.13
O=C(N1CC2(CC(n3cnc(C4(O)CC4)n3)C2)C1)N1CC2(CC[C@H](Cc3cccc(S(=O)(=O)C(F)(F)F)c3)C2)C1 [Example 361, [6-[3-(1-hydroxycyclopropyl)-1,2,4-triazol-1-yl]-2-azaspiro[3.3]heptan-2-yl]-[(6R)-6-[[3-(trifluoromethylsulfonyl)phenyl]methyl]-2-azaspiro[3.4]octan-2-yl]methanone] | 0.21
O=C(N1CC2(CC(n3cnc(C4(O)CC4)n3)C2)C1)N1CC2(CC[C@@H](Cc3ccc(S(=O)(=O)C(F)(F)F)cc3)C2)C1 [Example 362, [6-[3-(1-hydroxycyclopropyl)-1,2,4-triazol-1-yl]-2-azaspiro[3.3]heptan-2-yl]-[(6S)-6-[[4-(trifluoromethylsulfonyl)phenyl]methyl]-2-azaspiro[3.4]octan-2-yl]methanone] | 1.73
O=C(N1CC2(CC(n3cnc(C4(O)CC4)n3)C2)C1)N1CC2(CC[C@H](Cc3ccc(S(=O)(=O)C(F)(F)F)cc3)C2)C1 [Example 363, [6-[3-(1-hydroxycyclopropyl)-1,2,4-triazol-1-yl]-2-azaspiro[3.3]heptan-2-yl]-[(6R)-6-[[4-(trifluoromethylsulfonyl)phenyl]methyl]-2-azaspiro[3.4]octan-2-yl]methanone] | 1.35
O=C(N1CC2(CC(Cc3ccc(S(=O)(=O)C4CC4)cc3)C2)C1)N1CC2(CC(n3cnc(C4(O)CC4)n3)C2)C1 [Example 364, [6-[(4-cyclopropylsulfonylphenyl)methyl]-2-azaspiro[3.3]heptan-2-yl]-[6-[3-(1-hydroxycyclopropyl)-1,2,4-triazol-1-yl]-2-azaspiro[3.3]heptan-2-yl]methanone] | 1.84
N#Cc1cc(CC2CC3(C2)CN(C(=O)N2CC4(CC(n5cnc(C6(O)CC6)n5)C4)C2)C3)ccc1C(F)(F)F [Example 365, 5-[[2-[6-[3-(1-hydroxycyclopropyl)-1,2,4-triazol-1-yl]-2-azaspiro[3.3]heptane-2-carbonyl]-2-azaspiro[3.3]heptan-6-yl]methyl]-2-(trifluoromethyl) benzonitrile] | 1.83
CS(=O)(=O)c1cc(Cl)ccc1-c1ccc(C2CN(C(=O)N3CC4(CC(c5cncc(F)c5)C4)C3)C2)cc1 [Example 366, [3-[4-(4-chloro-2-methylsulfonyl-phenyl)phenyl]azetidin-1-yl]-[6-(5-fluoro-3-pyridyl)-2-azaspiro[3.3]heptan-2-yl]methanone] | 14.2
O=C(N1CC2(CC(Cc3ncc(Cl)cc3F)C2)C1)N1CC2(CC(n3cnc(C4(O)CC4)n3)C2)C1 [Example 367, [6-[(5-chloro-3-fluoro-2-pyridyl)methyl]-2-azaspiro[3.3]heptan-2-yl]-[6-[3-(1-hydroxycyclopropyl)-1,2,4-triazol-1-yl]-2-azaspiro[3.3]heptan-2-yl]methanone] | 2.38
N#Cc1ccc(CC2CC3(C2)CN(C(=O)N2CC4(CC(n5cnc(C6(O)CC6)n5)C4)C2)C3)cc1C(F)(F)F [Example 368, 4-[[2-[6-[3-(1-hydroxycyclopropyl)-1,2,4-triazol-1-yl]-2-azaspiro[3.3]heptane-2-carbonyl]-2-azaspiro[3.3]heptan-6-yl]methyl]-2-(trifluoromethyl) benzonitrile] | 1.57
O=C(N1CC2(CC(n3cnc(C4(O)CC4)n3)C2)C1)N1CC2(CCN(Cc3ccc(S(=O)(=O)C(F)(F)F)cc3)C2)C1 [Example 369, [6-[3-(1-hydroxycyclopropyl)-1,2,4-triazol-1-yl]-2-azaspiro[3.3]heptan-2-yl]-[7-[[4-(trifluoromethylsulfonyl)phenyl]methyl]-2,7-diazaspiro[3.4]octan-2-yl]methanone] | 49.3
N#Cc1cc(CC2CC3(C2)CN(C(=O)N2CC4(CC(n5cnc(C6(O)CC6)n5)C4)C2)C3)cc(C(F)(F)F)c1 [Example 370, 3-[[2-[6-[3-(1-hydroxycyclopropyl)-1,2,4-triazol-1-yl]-2-azaspiro[3.3]heptane-2-carbonyl]-2-azaspiro[3.3]heptan-6-yl]methyl]-5-(trifluoromethyl) benzonitrile] | 0.9
CS(=O)(=O)c1cc(Cl)ccc1-c1ccc(C2CN(C(=O)N3CC4(CC(c5ccc(C(F)(F)F)nc5)C4)C3)C2)cc1 [Example 371, [3-[4-(4-chloro-2-methylsulfonyl-phenyl)phenyl]azetidin-1-yl]-[6-[6-(trifluoromethyl)-3-pyridyl]-2-azaspiro[3.3]heptan-2-yl]methanone] | 9.23

Continued, values first:

IC50 [nM] | SMILES
1.12 | O=C(N1CC(c2ccc(NCC3(C(F)(F)F)CC3)nc2)C1)N1CC2(CC(n3cnc(C4(O)CC4)n3)C2)C1 [Example 372, [6-[3-(1-hydroxycyclopropyl)-1,2,4-triazol-1-yl]-2-azaspiro[3.3]heptan-2-yl]-[3-[6-[[1-(trifluoromethyl)cyclopropyl]methylamino]-3-pyridyl]azetidin-1-yl]methanone]
3.24 | O=C(N1CC(c2ccc(N3CC[C@@H](C(F)(F)F)C3)nc2)C1)N1CC2(CC(n3cnc(C4(O)CC4)n3)C2)C1 [Example 373, [6-[3-(1-hydroxycyclopropyl)-1,2,4-triazol-1-yl]-2-azaspiro[3.3]heptan-2-yl]-[3-[6-[(3R)-3-(trifluoromethyl)pyrrolidin-1-yl]-3-pyridyl]azetidin-1-yl]methanone]
52.9 | CS(=N)(=O)c1cccc(CC2CC3(C2)CN(C(=O)N2CC4(CC(n5cnc(C6(O)CC6)n5)C4)C2)C3)c1 (stereo not drawn) [Example 374, [6-[3-(1-hydroxycyclopropyl)-1,2,4-triazol-1-yl]-2-azaspiro[3.3]heptan-2-yl]-[6-[[3-(methylsulfonimidoyl)phenyl]methyl]-2-azaspiro[3.3]heptan-2-yl]methanone]
12.7 | CP(C)(=O)c1ccc(CC2CC3(C2)CN(C(=O)N2CC4(CC(n5cnc(C(F)(F)F)n5)C4)C2)C3)cc1 [Example 375, [6-[(4-dimethyl-phosphorylphenyl)methyl]-2-azaspiro[3.3]heptan-2-yl]-[6-[3-(trifluoromethyl)-1,2,4-triazol-1-yl]-2-azaspiro[3.3]heptan-2-yl]methanone]
4.07 | CP(C)(=O)c1ccc(CC2CC3(C2)CN(C(=O)N2CC4(CC(n5cnc(C6CC6)n5)C4)C2)C3)cc1 [Example 376, [6-(3-cyclopropyl-1,2,4-triazol-1-yl)-2-azaspiro[3.3]heptan-2-yl]-[6-[(4-dimethyl-phosphorylphenyl)methyl]-2-azaspiro[3.3]heptan-2-yl]methanone]
392 | CP(C)(=O)c1ccc(CC2CC3(C2)CN(C(=O)N2CC4(CC(n5cnc(C(F)(F)F)n5)C4)C2)C3)nc1 [Example 377, [6-[(5-dimethylphosphoryl-2-pyridyl)methyl]-2-azaspiro[3.3]heptan-2-yl]-[6-[3-(trifluoromethyl)-1,2,4-triazol-1-yl]-2-azaspiro[3.3]heptan-2-yl]methanone]
106 | CP(C)(=O)c1ccc(CC2CC3(C2)CN(C(=O)N2CC4(CC(n5cnc(C6CC6)n5)C4)C2)C3)nc1 [Example 378, [6-(3-cyclopropyl-1,2,4-triazol-1-yl)-2-azaspiro[3.3]heptan-2-yl]-[6-[(5-dimethylphosphoryl-2-pyridyl)methyl]-2-azaspiro[3.3]heptan-2-yl]methanone]
3350 | CP(C)(=O)c1ccc(CN2CC3(C2)CN(C(=O)N2CC4(CC(n5cnc(C(F)(F)F)n5)C4)C2)C3)cc1 [Example 379, [6-[(4-dimethyl-phosphorylphenyl)methyl]-2,6-diazaspiro[3.3]heptan-2-yl]-[6-[3-(trifluoromethyl)-1,2,4-triazol-1-yl]-2-azaspiro[3.3]heptan-2-yl]methanone]
0.57 | O=C(N1CC2(CC(Cc3ccc(F)cc3F)C2)C1)N1CC2(CC(c3cncc(F)c3)C2)C1 [Example 380, [6-[(2,4-difluorophenyl)methyl]-2-azaspiro[3.3]heptan-2-yl]-[6-(5-fluoro-3-pyridyl)-2-azaspiro[3.3]heptan-2-yl]methanone]
0.44 | O=C(N1CC2(CC(Cc3ccc(OC(F)(F)F)nc3)C2)C1)N1CC2(CC(n3cnc(C4(O)CC4)n3)C2)C1 [Example 381]
52.4 | O=C(N1CC(C23CC(Cc4ccc(C(F)(F)F)nc4)(C2)C3)C1)N1CC2(CC(n3cnc(C4(O)CC4)n3)C2)C1 [Example 382, [6-[3-(1-hydroxycyclopropyl)-1,2,4-triazol-1-yl]-2-azaspiro[3.3]heptan-2-yl]-[3-[3-[[6-(trifluoromethyl)-3-pyridyl]methyl]-1-bicyclo[1.1.1]pentanyl]azetidin-1-yl]methanone]
39.8 | O=C(N1CC2(CC(Cc3ccc4[nH]ncc4n3)C2)C1)N1CC2(CC(n3cnc(C4(O)CC4)n3)C2)C1 [Example 383, [6-[3-(1-hydroxycyclopropyl)-1,2,4-triazol-1-yl]-2-azaspiro[3.3]heptan-2-yl]-[6-(1H-pyrazolo[4,3-b]pyridin-5-ylmethyl)-2-azaspiro[3.3]heptan-2-yl]methanone]
